Measured values: patent US20020062499A1, “Methods for translational repression of gene expression in plants” (priority 2000, published 2002)

Key:
GUS expression = experiment: MS2 translation repression system in transgenic Arabidopsis (F1 segregants of crosses); format: in vivo; details: Arabidopsis plants containing the MS2 coat protein
Method: Arabidopsis plants are transformed by the Agrobacterium infiltration method as described (Bechtold et al., Methods Mol. Biol. 82:259-66 (1992)). DNA gel blots (Southern blot analysis), RNA gel blots (northern blot analysis) and protein immunoblots (western blot analysis) are carried out using standard protocols (Sambrook et al., Molecular Cloning: A laboratory manual, 2nd ed. Cold Spring Harbor Laboratory Press, Cold Spring Harbor, N.Y., (1989)).
V1 plants positive for GUS and MS2 coat protein are identified using a GUS assay (Jefferson et al., Plant Mol. Bio. Rep. 5:387-405 (1987)) and western blot analysis, respectively. Positive plants with a low copy number are identified by Southern analysis then cross pollinated. F1 plants from the cross are then subjected to PCR analysis to identify segregants that contained both transgenes as well as siblings that contained only the uidA gene. GUS expression levels are determined by MUG assays (Jefferson et al., Plant Mol. Bio. Rep. 5:387-405, (1987)) in both groups of plants for three separate crosses (25×1, 25×12, and 14×23).

[1] = tested on: aroA:CP4 EPSPS reporter gene expression; experiment: MS2 CP translational repression of CP4 EPSPS reporter, corn protoplast transient assay (ELISA); format: cell-based; details: corn protoplasts
Method: Corn protoplasts are prepared from etiolated leaves of antiseptically grown seedlings. Six to eight grams of leaf tissue is harvested and put in the enzyme mix (1% cellulase, 0.1% macerozyme, 0.6 M mannitol, 10 mM MES (pH =5.7), 1 mM CaCl2, 1 mM MgCl2, and 0. 1% BSA) in 100×25 mm petri plates. The leaf digestion is done for 135 minutes, swirling on a shaker at 50 rpm at 26° C. under light (10-25 mico-einsteins) in a growth chamber (Percival Scientific Inc., Boone, Iowa). Protoplasts are screened through a 190 μm sterile tissue mesh into a petri plate. The protoplasts are spun down in a table top centrifuge at 800 rpm (˜200 g) for 8 minutes. The supernatant is removed carefully by pipetting. The protoplasts are resuspended in 10 mL per tube of the 0.6 M mannitol rinse. They are spun down a second time using the same conditions and re-suspended in 10 mL of the electroporation buffer (0.6 M mannitol, 4 mM MES, 1.0 mM β-mercaptoethanol, 25 mM KCL, pH =5.7) and put on ice. The number of protoplasts is determined by making counts on a hemacytometer and a final density of 4.5×10^6 per mL is obtained with the proper volume of electroporation buffer. For electroporation, 0.75 mL of protoplasts is added to each cuvette followed by the addition of plasmid DNA in a volume of 50 μL or less. Samples are electroporated at 125 […] and 260 volts using a Bio-Rad Gene Pulser Electroporater (Bio-Rad CA) and incubated in Murishige-Skoog medium (MS) +0.6 M mannitol in the light at 26° C. for 18-22 hours before analysis. Protoplasts are harvested by spinning down at 800-1000 rpm in a table top centrifuge and lysed by resuspending in 500 μL extraction buffer (IX phosphate buffered saline [PBS] (Roche Boehringer Mannheim #1666789, Nutley, N.J.) 0.2% BSA, 0.5% Tween 20, pH 7.4) and vortexed for five seconds. Samples are spun at 3,000 rpm for 5 min in a table top centrifuge and the supernatant is saved to a fresh tube and put on ice ready for analysis.
The total amount of DNA in each sample is equalized by using as a carrier an appropriate amount of an empty vector plasmid DNA pMON999 (P-CaMV.35S/T-AGRTU.nos). With the aroA:CP4 EPSPS gene as the reporter, the GUS activity encoded by a separate plasmid is used as an internal control to normalize the expression. Similarly, the aroA:CP4 EPSPS gene expression is used for normalization when the Ec.uidA (GUS) gene is used as the reporter.
The aroA:CP4 EPSPS expression is quantitated by ELISA. A crude protoplast extract containing lmg total protein is added to goat anti-CP4 EPSPS IgG coated wells of a 96-well microtiter plate for immunoreaction. Antibodies specific to CP4 EPSPS are produced in goats by immunization of three goats with recombinant SDS-PAGE purified CP4 EPSPS from recombinant E. coli. […]

[2] = tested on: CP4 EPSPS reporter gene expression; experiment: Yeast RPL32 translational repression of CP4 EPSPS reporter in corn protoplasts; format: cell-based; details: CP4 EPSPS reporter with RPL32 operator
Method: (§1) Corn protoplasts are prepared from etiolated leaves of antiseptically grown seedlings. Six to eight grams of leaf tissue is harvested and put in the enzyme mix (1% cellulase, 0.1% macerozyme, 0.6 M mannitol, 10 mM MES (pH =5.7), 1 mM CaCl2, 1 mM MgCl2, and 0. 1% BSA) in 100×25 mm petri plates. The leaf digestion is done for 135 minutes, swirling on a shaker at 50 rpm at 26° C. under light (10-25 mico-einsteins) in a growth chamber (Percival Scientific Inc., Boone, Iowa). Protoplasts are screened through a 190 μm sterile tissue mesh into a petri plate. The protoplasts are spun down in a table top centrifuge at 800 rpm (˜200 g) for 8 minutes. The supernatant is removed carefully by pipetting. The protoplasts are resuspended in 10 mL per tube of the 0.6 M mannitol rinse. […] The number of protoplasts is determined by making counts on a hemacytometer and a final density of 4.5×10^6 per mL is obtained with the proper volume of electroporation buffer. […] Samples are spun at 3,000 rpm for 5 min in a table top centrifuge and the supernatant is saved to a fresh tube and put on ice ready for analysis.
For CP4 EPSPS ELISA assay, a 96-well Nunc-Immuno MaxiSorb plate is coated with 100 μL of purified monoclonal anti-CP4 EPSPS IgG antibody (1 ng/μL) in coating buffer (15 mM Na2CO3, 35 mM NaHCO3, pH 9.6). […] The plate is read on a Spectra Max 340 (Molecular Devices, Sunnyvail, Calif. 94089) at 450 nm. […]

[3] = tested on: Ec.uidA reporter gene with the MS2 operator in the 5′UTR; experiment: MS2 CP translational repression of Ec.uidA (GUS) reporter, corn protoplast transient assay; format: cell-based; details: pMON42178/pMON42176 and pMON42180/pMON42177; corn protoplasts
Method: as §1, with “analysis. […]” for “analysis.”
A fluorometry assay for GUS activity is performed as described (Jefferson, Plant Mol. Bio. Rep. 5:387-405 (1987)). GUS activity is measured with the fluorometric substrate 4-methylumbelliferryl-β-glucuronide (4-MUG) on a Fmax fluorimeter (Molecular Devices Corp., Sunnyvale, Calif.). […]

[4] = 4:1 DNA molar ratio of the coat protein gene to the reporter
[5] = MS2 coat protein gene co-expressed

MS2 coat protein: coat protein of the MS2 RNA bacteriophage, RNA-binding translational repressor
GUS activity, % of the control (GUS expression): 6.9%
fold repression of GUS activity (GUS expression): 14 fold
expression of the aroA:CP4 EPSPS reporter gene, % of the control [1, 4]: 0.4%
fold repression of aroA:CP4 EPSPS reporter [1, 4]: 270 fold
expression of the aroA:CP4 EPSPS reporter gene, % of the control [1, 5]: 14%
fold repression of aroA:CP4 EPSPS reporter [1, 5]: about 7 fold

RPL32: yeast (Saccharomyces cerevisiae) ribosomal protein RPL32, an RNA-binding protein
fold reduction of translation [2]: up to 2.3 fold
translation, % of the control [2]: ≥ 43%

B1: MS2 CP:en: plant expression enhanced version of the MS2 CP gene (SEQ ID NO:3) (nucleic acid)
DNA: ATGGCCTCCAACTTCACCCAGTTCGTGCTCGTGGACAACGGCGGCACCGGCGACGTGACCGTCGCCCCAAGCAACTTCGCCAACGGGGTCGCCGAGTGGATCAGCTCCAACTCGCGCTCCCAGGCCTACAAGGTGACCTGCAGCGTGCGCCAGTCCTCCGCGCAGAACCGCAAGTACACCATCAAGGTCGAGGTGCCGAAGGTGGCCACCCAGACCGTCGGCGGCGTGGAGCTGCCAGTGGCCGCCTGGCGCTCGTACCTCAACATGGAGCTGACCATCCCAATCTTCGCCACGAACTCCGACTGCGAGCTGATCGTGAAGGCCATGCAAGGCCTCCTGAAGGACGGCAACCCGATCCCCTCCGCCATCGCCGCCAACTCCGGCATCTACTAA
modifications: synthetic plant MS2 CP gene
increase in efficiency of translational repression compared to the respective native gene construct, expressed as decrease in GUS activity [3]: 74-80%
